Data set [1] has as its system ob/ob mice. The experiment in a line: AS101 in drinking water of ob/ob mice in metabolic cages: body weight, food intake, blood glucose. It counts as in vivo. The method, then:
Female ob/ob mice (8 weeks old) were placed in metabolic cages and were given free drinking water and chow. After 48 h, one group of 3 mice (the Control group) continued to receive water and chow. A second group of 3 mice received drinking water containing AS 101 (7 mg/L) in addition to the standard chow. The experiment was continued for 18 days and body weights were measured daily. On the average the mice consumed about 1.5 ml of water per 24 h, corresponding to 10 microgram AS101 per mouse per day. This value corresponds to 0.25 mg/kg body weight per 24 h.
On the average, food consumption was reduced by 26±7% (p<0.02, n=16, FIG. 2).
On the last day of treatment, tail blood was withdrawn and blood glucose was determined in three control mice and three mice of the AS101 group.

The subject of data set [2] is 6-week-old mice. To be noted: cited from earlier work.
In data set [3] the test system is diet-induced obese C57BL/6 mice. Briefly: Body weight of diet-induced obese C57BL/6 mice injected daily with AS101. It counts as in vivo. The method, then:
Since the obesity of ob/ob mice is of genetic origin, whereas obesity among human populations is largely due to excess eating over energy expenditure, the effect of AS101 on body weight was studied in diet-induced obese mice. Female mice were fed for 10 weeks with a high fat diet, resulting in moderate obesity (average weight 37 g). Mice were placed in metabolic cages and injected daily with either saline (Control group, 3 mice) or AS 101 (0.5 mg/kg body weight in saline, AS101 group, 3 mice). High fat diet was continued and the body weight was determined daily. […] Therefore, AS101 is an effective medicament for the treatment of diet-induced obesity.

Data set [4] relates to liver tissue of ob/ob mice. The experiment in a line: Microscopic examination of liver tissue of ob/ob mice after 18 days of AS101 treatment. Type of data set: in vivo. To be noted: 18 days AS101 treatment, vs control mice, FIG. 4. From the text: Following 18 days treatment of the ob/ob mice with AS101 as described in Example 1, the animals were sacrificed. Samples of liver tissue were taken, fixed with formaldehyde and tissue slices were examined microscopically (FIG. 4).

Data set [5] deals with Swiss 3T3-F442A murine pre-adipocytes. The experiment in a line: Differentiation of pre-adipocytes into mature adipocytes, oil red staining. It counts as cell-based. As to conditions: AS101 0.2 micrograms/ml, six days in DMEM with 10% FBS, oil red stain, FIG. 6. The procedure: To gain insight on the mechanism by which AS101 affects the adipose tissue, its effect was studied on an in-vitro model of differentiation of pre-adipocytes into mature adipocytes. It should be clarified here that adipocytes are fully differentiated cells. […] Besides increase in cell volume, the only way to gain weight in vivo is by generating new adipocytes from pre-adipocytes by differentiation. Swiss 3T3-F442A murine pre-adipocytes were grown in DMEM (GIBCO, USA) with 10% calf serum. To induce differentiation into mature adipocytes, confluent cell cultures were maintained in DMEM supplemented with 10% fetal bovine serum (FBS) for six days, either in the presence or in the absence of AS101 (0.2 micrograms/ml). The cultures were then stained with oil red, which specifically stains the fat droplets within the cells.

Read-outs that look alike come from different tables or passages of the source.

For the compound `Cl[TeH]1(Cl)(Cl)OCCO1` [AS101, ammonium trichloro(dioxoethylene-O,O′)tellurate], the body weight gain entry in data set [1] (female ob/ob mice, AS101 7 mg/L in drinking water (0.25 mg/kg body weight per 24 h), 18 days, vs Control group, FIG. 1) is on record as “did not gain weight significantly”. Moreover, the “reduction of food consumption, on the average” value in data set [1] (female ob/ob mice, AS101 7 mg/L in drinking water, daily food consumption, p<0.02, n=16, FIG. 2) is listed as 26±7%. In addition, the blood glucose entry in data set [1] (ob/ob mice, tail blood on the last day of treatment (18 days), AS101 7 mg/L in drinking water, FIG. 3) was “statistically significant (p<0.05) reduction”. Also, the results for the LD50 in data set [2] and in data set [2] (same value re-expressed) were 300 μg/25 g of body weight and 12 mg/kg body weight, respectively. The body weight entry in data set [3] (female mice on high fat diet, AS101 0.5 mg/kg body weight in saline injected daily, vs saline control, FIG. 5) is “reduced significantly and continued to drop through the entire study”. The food intake entry in data set [3] (normal mice rendered obese by high-fat diet, AS101 by daily injections) is “reduction of food intake”. The “number and size of adipocytes in liver tissue” value in data set [4] was “extensive reduction in the number of adipocytes and in their size”. Besides, in data set [5], the “differentiation of pre-adipocytes into mature adipocytes (fat droplets)” value is listed as “inhibited the differentiation”.

The values are drawn from patent publication US20060166957A1, “Methods of treating obesity and related disorders using tellurium selenium compounds” (priority 2003, published 2006).
